According to patent publication US20210087279A1, “REGULATABLE CHIMERIC ANTIGEN RECEPTOR” (Novartis AG, priority 2014, published 2021):

Experiments:
Type in all cases: cell-based
[1] = tested on: NFAT activity in Jurkat cells with NFAT-LUC reporter (JNL); assay: Activation of RCAR with extracellular FKBP/FRB switch by RAD001; conditions: for RAD001 dose at which NFAT activity peaked: 0-50 nM tested
Method: In this example, the activation of RCAR with an extracellular switch was evaluated in the presence of the dimerization molecule RAD001. Four RCARs were tested: two half switch constructs, e.g., with the dimerization switch in both orientations (FIG. 34A), and two full switch constructs, e.g., with the dimerization switch in both orientations (FIG. 34B), where the dimerization switch is an extracellular FKBP/FRB dimerization, as depicted in FIGS. 34A and 34B. In the half-switch constructs, the antigen binding member comprises a scFV domain, an extracellular switch domain, a transmembrane domain, an intracellular costimulatory signaling domain 4-1BB, and the intracellular signaling member comprises an extracellular switch domain, a transmembrane domain, and an intracellular primary signaling domain, CD3zeta (FIG. 34A). In the full-switch constructs, the antigen binding member comprises a scFv domain, an extracellular switch domain, and a transmembrane domain, and the intracellular signaling member comprises an extracellular switch domain, a transmembrane domain, an intracellular costimulatory signaling domain, 4-1BB, and an intracellular primary signaling domain, CD3zeta (FIG. 34B).
The RCAR constructs were expressed in a Jurkat reporter cell line. Jurkat cells with NFAT-LUC reporter (JNL) were grown to the density of 0.5×10^6/ml in Jurkat cell growth media with puromycin at 0.5 μg/ml. For each transfection 2.5×10^6 cells were spin down at 100 g for 10 minutes. Two μg of DNA per RCAR construct were used per transfection. Amaxa Nucleofector solution V and supplement I was mixed and 100 μl was added into the tube with DNA construct. The mixture was then added to the cells and transferred to the electroporation cuvette. Electroporation was done under setting X-001 using Amaxa Nucleofector II Device. […]
After one hour, RAD001 compound was applied at various concentrations: 0 nM, 0.01 nM, 0.03 nM, 0.1 nM, 0.3 nM, 1 nM, 5 nM, and 50 nM. […] The samples were incubated for 5 min at 37° C. and then luminescence was measured using Envision plate reader.

[2] = tested on: luciferase-expressing Nalm6 (human pre-B ALL) cell line; assay: Killing assay with RCAR-expressing primary T cells; conditions: effector:target 1:1; 20 hours
Method: The ability for RCAR T cells (RCAR T cell generation described above) to target and kill tumor cells was assessed in vitro. A luciferase-based assay was used, with tumor cell lines expressing luciferase reporters. Target cells (tumor cells) were plated at 25,000 cells/well. RCAR T cells, as well as standard CAR-expressing T cells and T cells expressing no CARs were added at the effector:target ratio 1:1 in duplicates. Additionally, RAD001 was added in seven 5-fold dilution steps, starting at 50 nM. One duplicate received pure medium, no RAD001. The cells were cultured for 20 hours, after which the luminescence of each well was detected to determine the percentage of target cells killed (BrightGlo, Promega protocol). Specific killing (%)=[…]. The luciferase-expressing Nalm6 (human pre-B ALL) cell line was used as the target cell.

[3] = tested on: reporter under NFAT control in JNL cells; assay: Dimerization molecule dose response, single vector construct 143775 in JNL cells, CD19 target; conditions: nM to sub-nM doses
Description: The constructs and viral particles were made and tested essentially as described in Example 11. Viral particles were introduced into JNL cells and evaluated for activity essentially as described in Example 1 except that the target was CD19 (as opposed to EGFRviii).
Construct 143775 was introduced into cells and the affect of dimerization molecule concentration on activation evaluated essentially as described in Example 14.

[4] = tested on: NFAT activity in Jurkat cells with NFAT-LUC reporter (JNL); assay: Activation of RCAR half switches (intracellular FKBP/FRB) by RAD001; conditions: both half switches (CD28 or 4-1BB); 0-10 nM tested
Method: In this example, the activation of a RCAR half switch was evaluated in the presence of the dimerization molecule RAD001. Two RCAR constructs were tested where the dimerization switch is an intracellular FKBP/FRB dimerization switch, and the switch domains are located in both orientations with respect to the antigen binding member and the intracellular member. For example, the antigen binding member comprises a scFV domain, a transmembrane domain, an intracellular switch domain, and an intracellular costimulatory signaling domain; and the intracellular signaling member comprises an […] switch domain, a transmembrane domain, and an intracellular primary signaling domain, e.g., CD3zeta (FIG. 36A).
Jurkat cells with NFAT-LUC reporter (JNL) were grown to the density of 0.5×10^6/ml in Jurkat cell growth media with puromycin at 0.5 μg/ml. For each transfection 2.5×10^6 cells were spin down at 100 g for 10 minutes. Two μg of DNA per construct were used per transfection. […]
After one hour, RAD001 compound was delivered at 50 nM when testing RCARs with different costimulatory signaling domains (FIGS. 36A-B), or various concentrations: 0 nM, 0.01 nM, 0.03 nM, 0.1 nM, 0.3 nM, 1 nM, 3 nM, and 10 nM (FIGS. 37A-B). […] The samples were incubated for 5 min at 37° C. and then luminescence is measured using Envision plate reader.

`CO[C@H]1C[C@@H]2CC[C@@H](C)[C@@](O)(O2)C(=O)C(=O)N2CCCC[C@H]2C(=O)O[C@H]([C@H](C)C[C@@H]2CC[C@@H](OCCO)[C@H](OC)C2)CC(=O)[C@H](C)/C=C(\C)[C@@H](O)[C@@H](OC)C(=O)[C@H](C)C[C@H](C)/C=C/C=C/C=C/1C` [RAD001, (1R,9S,12S,15R,16E,18R,19R,21R,23S,24E,26E,28E,30S,32S,35R)-1,18-dihydroxy-12-{(1R)-2-[(1S,3R,4R)-4-(2-hydroxyethoxy)-3-methoxycyclohexyl]-1-methylethyl}-19,30-dimethoxy-15,17,21,23,29,35-hexamethyl-11,36-dioxa-4-aza-tricyclo[30.3.1.04,9]hexatriaconta-16,24,26,28-tetraene-2,3,10,14,20-pentaone] was tested, and the “RAD001 dose at which NFAT activity peaked” value ([1]; extracellular RCAR full switches) was 1 nM, the “inhibition of NFAT activity at higher dosages” value ([1]; extracellular half switch 1, 5 nM and 50 nM) was “no inhibition of activity” and the “RAD001 dose at which NFAT activity peaked” value ([1]; extracellular half switch 2) was 1 nM. The “RAD001 concentration at maximal killing by RCAR-expressing T cells” value [2] was “around 1 nM”, the activation [3] was “effective at a broad range of concentrations” and the “RAD001 concentration at which NFAT activity peaked” value [4] was 1 nM.
